Marks after values point to notes of the source that are not given here.
Experiments:
RPMI melanoma cells = test: Cell morphology assessment; format: cell-based, human; conditions: 5 μM, 24 h
Protocol: In order to further investigate the biological effects of these compounds against three human melanoma cell lines, their effect on cell morphology was assessed.
In terms of the RPMI melanoma cell line (Figure 10), a decrease in the number of cells can be observed in direct proportion to the tested concentration; for both compounds, a proapoptotic change occurred in the cellular morphology.

Bcl-XL gene = test: rtPCR gene expression in RPMI cells; format: cell-based, human
Description: (§1) We applied rtPCR techniques in order to investigate the effect of our two compounds on the anti-apoptotic Bcl-XL and Bcl-2 genes as well as the proapoptotic Bak and Bad genes (Table 4). […] Therefore, we may presume that the apoptotic mechanism of both compounds against the A375 cells is not mediated by the tested genes or that alterations in their ratio are the underlying mechanism.

Bak gene = test: rtPCR gene expression in RPMI cells; format: cell-based, human
Description: as §1

chorioallantoic membrane = test: HET-CAM irritation assay; conditions: for Irritation Score: 5 min
Description: HET-CAM assay was used in order to assess the toxicity of compounds 6 and 7 (Figure 16); the procedure is a low-cost, unique model in biomedical research that allows the testing of the irritation potency of chemical compounds while simultaneously avoiding in vivo experiments. […] The Luepke scale was used to establish the irritation score: 0–0.9 indicates non-irritant, 1–4.9 indicates weakly irritant, 5–8.9 indicates moderately irritant, and 9–21 means strongly irritant.
Compounds 6 and 7 were also evaluated in terms of biocompatibility on mucosal tissues by using the in vivo Hen’s Egg Chorioallantoic Membrane Test (HET-CAM assay). The assay assesses a potential irritant effect on the vascular plexus of the chorioallantoic membrane. The HET-CAM method was carried out following ICCVAM recommendations published in November 2016 in Appendix G and adapted to our laboratory conditions. Thus, 300 µL of control or test solution, respectively, was applied on CAM and the alterations induced at the CAM level were monitored by means of stereomicroscopy (Discovery 8 Stereomicroscope, Zeiss), registering significant images (Axio CAM 105 color, Zeiss), before the application and after 5 min contact with the samples. All images were processed using Zeiss ZEN software, Gimp 2.8 and ImageJ software. Negative control was represented by distilled water and solvent control DMSO 0.5%, while the positive control by the sodium lauryl sulphate (SLS) 0.5% in distillate water. The test substances were tested in concentrations of 1 µM. The observation time of the produced reactions was 5 min (300 s) and the time, at which the occurrence of a particular reaction took place was recorded in seconds. Finally, the following reactions were monitored: hemorrhage—H (blood vessel bleeding), vascular lysis —L (disintegration of blood vessels), and coagulation —C (intra or extra- vascular protein denaturizing). A variety of analysis methods may be used to assess irritancy potential of test substances. One analysis method that has been used extensively used is an irritation score (IS) calculated according to the following formula: IS=5×301−SecH/300+[…]/300+9×301−SecC/300 where H = hemorrhage; L = vessel lysis; C = coagulation; Hemorrhage time (Sec H) = onset of hemorrhage reactions on CAM (in sec); Lysis time (Sec L) = onset of vessel lysis on CAM (in sec); Coagulation time (Sec C) = onset of coagulation formation on CAM (in sec). The formula comprises a factor indicating the impact of the observed effect on vascular damage, e.g., coagulation has the highest impact expressed by the multiplication factor 9. The IS values range on a scale between 0 and 21.

SMILES	Effect on cell morphology (RPMI melanoma cells)	Bcl-XL gene expression, Mean (Bcl-XL gene)	Bak gene expression, Mean (Bak gene)	Irritation Score (chorioallantoic membrane; HET-CAM, 300 µL, 1 µM test compounds, scale 0–21)	Type of Effect (chorioallantoic membrane; HET-CAM, Luepke scale)	Irritation Score (chorioallantoic membrane; chicken, in vivo, 1 µM)	Type of Effect (chorioallantoic membrane; in vivo)
C[C@H]1[C@@H]2[C@H]3CC[C@@H]4[C@@]5(C)C/C(=C\c6cccnc6)C(=O)C(C)(C)[C@@H]5CC[C@@]4(C)[C@]3(C)CC[C@]23CO[C@@]1(C)[C@@H](C(=O)/C=C/c1cccnc1)C3 [Compound 6, 3-Oxo-2-(3-pyridinylidene)-21-[3-(2E-pyridinyl)-prop-2-en-1-one]-20β,28-epoxy-18α,19βH-ursane]	formation of vacuoles within the cell cytoplasm	0.100 **	0.066 ***	0	Non irritant		
COC(=O)[C@]12CC[C@@H](C(=O)/C=C/c3cccnc3)[C@@H]1[C@H]1CC[C@@H]3[C@@]4(C)C/C(=C\c5cccnc5)C(=O)C(C)(C)[C@@H]4CC[C@@]3(C)[C@]1(C)CC2 [Compound 7, methyl 2,30-bis-(3-pyridinylidene)-3,20-dioxo-lup-28-oate]		1.360 *	0.990 **			0	Non irritant
